The results in this text go back to patent US20230322770A1, “SUBSTITUTED HETEROARYL COMPOUNDS USEFUL AS INHIBITORS OF TLR9” (BRISTOL-MYERS SQUIBB COMPANY, priority 2020, published 2023).

What all share (format): cell-based
For assay [1], the target named is T1, human TLR9 (Homo sapiens, UniProt Q9NR96).
T1 construct: host or cells: HEK-Blue cells (HEK293-derived reporter line)
T1 sequence (Q9NR96 26-1032): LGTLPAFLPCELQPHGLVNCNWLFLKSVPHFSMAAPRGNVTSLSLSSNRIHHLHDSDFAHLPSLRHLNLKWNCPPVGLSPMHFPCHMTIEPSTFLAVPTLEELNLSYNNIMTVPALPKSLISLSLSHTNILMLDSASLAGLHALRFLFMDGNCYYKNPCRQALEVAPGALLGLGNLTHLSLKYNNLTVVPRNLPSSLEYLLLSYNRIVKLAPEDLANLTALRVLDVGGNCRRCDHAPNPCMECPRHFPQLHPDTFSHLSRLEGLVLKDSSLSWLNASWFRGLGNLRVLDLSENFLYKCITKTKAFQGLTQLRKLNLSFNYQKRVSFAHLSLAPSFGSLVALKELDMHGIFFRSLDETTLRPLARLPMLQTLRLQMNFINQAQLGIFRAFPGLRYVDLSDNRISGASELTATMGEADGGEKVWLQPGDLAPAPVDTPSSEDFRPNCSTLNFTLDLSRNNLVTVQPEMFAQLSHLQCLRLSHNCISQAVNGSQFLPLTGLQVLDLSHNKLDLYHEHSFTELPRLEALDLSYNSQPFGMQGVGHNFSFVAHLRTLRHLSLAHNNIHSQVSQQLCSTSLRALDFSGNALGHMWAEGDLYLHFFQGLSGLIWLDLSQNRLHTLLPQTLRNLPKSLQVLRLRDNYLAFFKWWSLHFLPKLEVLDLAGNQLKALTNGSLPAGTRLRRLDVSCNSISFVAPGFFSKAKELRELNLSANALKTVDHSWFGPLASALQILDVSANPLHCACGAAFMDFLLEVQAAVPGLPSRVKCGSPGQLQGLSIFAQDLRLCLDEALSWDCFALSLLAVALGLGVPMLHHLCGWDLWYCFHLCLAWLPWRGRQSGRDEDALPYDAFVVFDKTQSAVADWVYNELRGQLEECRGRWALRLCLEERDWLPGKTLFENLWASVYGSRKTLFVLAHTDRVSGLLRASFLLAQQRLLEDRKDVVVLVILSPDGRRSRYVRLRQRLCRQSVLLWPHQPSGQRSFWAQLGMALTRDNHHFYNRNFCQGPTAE
As to the kind of experiment: TLR9 inhibition reporter assay (HEK-Blue cells, SEAP reporter). The conditions noted are these: HEK-Blue cells overexpressing human TLR9; stimulated with ODN2006 5 nM; SEAP after 22 hour incubation. On the procedure: (§1) TLR7/8/9 Inhibition Reporter Assays
(§2) HEK-Blue™-cells (Invivogen) overexpressing human TLR7, TLR8 or TLR9 receptors were used for screening inhibitors of these receptors using an inducible SEAP (secreted embryonic alkaline phosphatase) reporter gene under the control of the IFN-β minimal promoter fused to five NF-κB and AP-1-binding sites. Briefly, cells are seeded into Greiner 384 well plates (15000 cells per well for TLR7, 20,000 for TLR8 and 25,000 for TLR9) and then treated with test compounds in DMSO to yield a final dose response concentration range of 0.05 nM-50 μM. After a 30 minute compound pre-treatment at room temperature, the cells are then stimulated with a TLR7 ligand (gardiquimod at a final concentration of 7.5 μM), TLR8 ligand (R848 at a final concentration of 15.9 μM) or TLR9 ligand (ODN2006 at a final concentration of 5 nM) to activate NF-κB and AP-1 which induce the production of SEAP. After a 22 hour incubation at 37° C., 5% CO2, SEAP levels are determined with the addition of HEK-Blue™ Detection reagent (Invivogen), a cell culture medium that allows for detection of SEAP, according to manufacturer's specifications. The percent inhibition is determined as the % reduction in the HEK-Blue signal present in wells treated with agonist plus DMSO alone compared to wells treated with a known inhibitor.

Assay [2] addresses T2, human TLR7 (Homo sapiens, UniProt Q9NYK1).
T2 construct: host or cells: HEK-Blue cells (HEK293-derived reporter line)
T2 sequence (Q9NYK1 27-1049): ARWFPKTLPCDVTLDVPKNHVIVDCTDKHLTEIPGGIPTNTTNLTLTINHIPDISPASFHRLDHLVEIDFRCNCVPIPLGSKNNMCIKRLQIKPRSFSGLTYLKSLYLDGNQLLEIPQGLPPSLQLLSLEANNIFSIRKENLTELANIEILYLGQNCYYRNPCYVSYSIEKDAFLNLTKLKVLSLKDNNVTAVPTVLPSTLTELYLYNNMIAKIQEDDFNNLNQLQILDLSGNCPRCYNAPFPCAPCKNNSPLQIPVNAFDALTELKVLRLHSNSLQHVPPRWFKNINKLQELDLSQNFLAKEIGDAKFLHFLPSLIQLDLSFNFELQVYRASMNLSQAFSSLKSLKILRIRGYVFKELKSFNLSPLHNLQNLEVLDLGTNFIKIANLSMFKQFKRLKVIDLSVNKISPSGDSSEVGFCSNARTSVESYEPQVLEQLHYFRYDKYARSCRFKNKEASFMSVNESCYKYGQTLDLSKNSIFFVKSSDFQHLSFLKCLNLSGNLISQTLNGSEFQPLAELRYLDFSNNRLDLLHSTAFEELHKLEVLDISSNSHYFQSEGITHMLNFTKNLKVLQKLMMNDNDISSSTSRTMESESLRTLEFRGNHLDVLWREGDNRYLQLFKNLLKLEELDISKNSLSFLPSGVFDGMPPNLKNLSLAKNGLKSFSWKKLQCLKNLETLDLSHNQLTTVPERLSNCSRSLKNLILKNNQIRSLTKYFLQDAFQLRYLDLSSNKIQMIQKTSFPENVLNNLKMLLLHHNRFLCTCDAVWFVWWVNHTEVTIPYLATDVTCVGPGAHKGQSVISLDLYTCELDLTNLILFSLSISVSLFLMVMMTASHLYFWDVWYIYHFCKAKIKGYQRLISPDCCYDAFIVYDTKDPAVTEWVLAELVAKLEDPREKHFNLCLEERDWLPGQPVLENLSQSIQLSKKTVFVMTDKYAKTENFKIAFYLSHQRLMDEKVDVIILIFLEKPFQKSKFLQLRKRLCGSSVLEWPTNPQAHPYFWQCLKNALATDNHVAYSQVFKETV
The assay can be described thus: TLR7 inhibition reporter assay (HEK-Blue cells, SEAP reporter). The conditions noted are these: HEK-Blue cells overexpressing human TLR7; stimulated with gardiquimod 7.5 μM; SEAP after 22 hour incubation. On the procedure:
as §1, §2
(In a reporter assay the amount or activity of a reporter protein is the signal.)

For assay [3], the target named is T3, human TLR8 (Homo sapiens, UniProt Q9NR97).
T3 construct: host or cells: HEK-Blue cells (HEK293-derived reporter line)
T3 sequence (Q9NR97 27-1041): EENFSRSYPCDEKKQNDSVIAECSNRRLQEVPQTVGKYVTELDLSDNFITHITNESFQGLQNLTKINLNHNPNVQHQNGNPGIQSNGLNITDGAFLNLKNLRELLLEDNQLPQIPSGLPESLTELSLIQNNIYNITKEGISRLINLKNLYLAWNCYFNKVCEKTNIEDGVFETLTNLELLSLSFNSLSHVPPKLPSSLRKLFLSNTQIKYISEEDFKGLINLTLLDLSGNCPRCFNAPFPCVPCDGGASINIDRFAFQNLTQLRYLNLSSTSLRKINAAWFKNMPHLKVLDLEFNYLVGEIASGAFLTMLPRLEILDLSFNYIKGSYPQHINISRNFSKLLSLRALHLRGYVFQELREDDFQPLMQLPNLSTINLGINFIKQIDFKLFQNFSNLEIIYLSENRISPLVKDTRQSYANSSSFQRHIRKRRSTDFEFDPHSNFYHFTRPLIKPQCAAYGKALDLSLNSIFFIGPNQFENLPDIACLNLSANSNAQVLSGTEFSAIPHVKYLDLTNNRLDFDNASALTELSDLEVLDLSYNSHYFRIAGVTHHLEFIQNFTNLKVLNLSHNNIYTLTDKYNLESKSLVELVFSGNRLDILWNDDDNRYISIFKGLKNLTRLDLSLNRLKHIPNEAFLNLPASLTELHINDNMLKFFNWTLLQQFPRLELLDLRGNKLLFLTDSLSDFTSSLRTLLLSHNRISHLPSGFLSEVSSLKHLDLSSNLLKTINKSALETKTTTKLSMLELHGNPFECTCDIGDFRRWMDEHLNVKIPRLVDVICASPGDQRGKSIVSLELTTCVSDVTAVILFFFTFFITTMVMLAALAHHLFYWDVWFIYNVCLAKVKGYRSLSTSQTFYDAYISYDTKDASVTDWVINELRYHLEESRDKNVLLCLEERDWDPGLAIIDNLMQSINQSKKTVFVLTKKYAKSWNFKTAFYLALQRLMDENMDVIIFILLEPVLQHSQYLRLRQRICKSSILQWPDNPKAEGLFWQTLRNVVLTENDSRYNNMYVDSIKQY
As to the kind of experiment: TLR8 inhibition reporter assay (HEK-Blue cells, SEAP reporter). The conditions noted are these: HEK-Blue cells overexpressing human TLR8; stimulated with R848 15.9 μM; SEAP after 22 hour incubation. On the procedure: as §1, §2

Some results are limits rather than exact numbers.

As a reminder, the IC50 is the point on the concentration scale where inhibition reaches its midpoint. As for `CC(C)N1CCN(c2ccc(-c3cnc4cc(-c5cccc(S(=O)(=O)N(C)C)c5)n(C)c4c3)cc2)CC1` [Example 40], the figures for the half-maximal inhibitory concentration (IC50) in assay [1], in assay [2] and in assay [3] were 0.076 µM, 8.1 µM and 2.1 µM, respectively.

As to `CC(C)N1CCN(c2ccc(-c3cnc4cc(-c5ccc(S(C)(=O)=O)cc5)n(C)c4c3)cc2)[C@@H](C)C1` [Example 30], the results for the IC50 in assay [1], in assay [2] and in assay [3] were 0.576 µM, 4.8 µM and 5.3 µM, respectively.

In the case of `Cn1c(-c2ccc(S(C)(=O)=O)cc2F)cc2ncc(-c3ccc(N4CCN5CCCC5C4)cc3)cc21` (stereo not shown) [Example 42], the concentration for half-maximal inhibition (IC50) was 0.436 µM in assay [1], above 50 µM in assay [2] and 2.8 µM in assay [3].

As for `COc1cc(-c2cc3ncc(-c4ccc(N5CCN(C(C)C)CC5)cc4)cc3n2C)ccc1C#N` [Example 38, 4-[6-[4-(4-isopropylpiperazin-1-yl)phenyl]-1-methyl-pyrrolo[3,2-b]pyridin-2-yl]-2-methoxy-benzonitrile], the 50% inhibitory concentration (IC50) in assay [1] was 0.505 µM; in assay [2] it was above 25 µM; in assay [3], above 25 µM.

As to `COc1ccc(-c2cc3ccc(-c4ccc(N5CCN(C(C)C)CC5)cc4)nc3n2C)cc1OC` [Example 7, 2-(3,4-Dimethoxyphenyl)-6-(4-(4-isopropylpiperazin-1-yl)phenyl)-1-methyl-1H-pyrrolo[2,3-b]pyridine], the IC50 in assay [1] was 4.58 µM; in assay [2], at least 50 µM; in assay [3], at least 50 µM.

With `CC(C)N1CCN(c2ccc(-c3cnc4cc(-c5ccc(S(C)(=O)=O)cc5)n(C)c4c3)cc2)[C@H](C)C1` [Example 28], the values for the IC50 in assay [1], in assay [2] and in assay [3] were 0.236 µM, 3.2 µM and 5 µM, respectively.

Regarding `COc1ccc(-c2cc3ncc(-c4ccc(N5CCN(C(C)C)CC5)cc4)cc3n2C)cc1C#N` [Example 39], the IC50 in assay [1] was 0.101 µM; in assay [2], above 25 µM; in assay [3] it was above 25 µM.

As to `CC(C)CN1CCN(c2ccc(-c3cnc4cc(-c5ccc(S(C)(=O)=O)cc5)n(C)c4c3)cc2)CC1` [Example 6, 6-(4-(4-Isobutylpiperazin-1-yl)phenyl)-1-methyl-2-(4-(methylsulfonyl)phenyl)-1H-pyrrolo[3,2-b]pyridine], the IC50 in assay [1] came to 0.139 µM.

As to `CC(C)N1[C@H](C)CN(c2ccc(-c3cnc4cc(-c5ccc(S(C)(=O)=O)cc5)n(C)c4c3)cc2)C[C@@H]1C` [Example 34], the concentration for half-maximal inhibition (IC50) is 0.244 µM in assay [1], above 50 µM in assay [2] and above 50 µM in assay [3].

Turning to `CC(C)N1C[C@H](C)N(c2ccc(-c3cnc4cc(-c5ccc(S(C)(=O)=O)cc5)n(C)c4c3)cc2)[C@@H](C)C1` [Example 31], the figures for the IC50 in assay [1], in assay [2] and in assay [3] were 0.48 µM, 2.5 µM and 4.5 µM, respectively.

With `COc1ccc(-c2cc3ncc(-c4ccc(N5CCN(C(C)C)CC5)cc4)cc3n2C)cc1OC` [Example 1, 2-(3,4-Dimethoxyphenyl)-6-(4-(4-isopropylpiperazin-1-yl)phenyl)-1-methyl-1H-pyrrolo[3,2-b]pyridine], the concentration for half-maximal inhibition (IC50) in assay [1] was determined as 0.094 µM; in assay [2] it was 7 µM; in assay [3], 7.2 µM.

Consider `Cn1c(-c2ccc(S(C)(=O)=O)cc2)cc2ncc(-c3ccc(CN4CCN(CCC(C)(C)O)CC4)cc3)cc21` [Example 19, 2-Methyl-4-(4-(4-(1-methyl-2-(4-(methylsulfonyl)phenyl)-1H-pyrrolo[3,2-b]pyridin-6-yl)benzyl)piperazin-1-yl)butan-2-ol], for which the concentration for half-maximal inhibition (IC50) was determined as 0.663 µM in assay [1], 7.9 µM in assay [2] and 4.3 µM in assay [3].

In assay [1], `CC(C)N1[C@H](C)CN(c2ccc(-c3cnc4cc(-c5ccc(S(C)(=O)=O)cc5)n(C)c4c3)cc2)C[C@H]1C` [Example 35] yielded a half-inhibitory concentration (IC50) of 0.091 µM.

For the compound `Cn1c(-c2ccc(S(C)(=O)=O)cc2F)cc2ncc(-c3ccc(N4CCN(C5CC5)CC4)cc3)cc21` [Example 45], the half-maximal inhibitory concentration (IC50) in assay [1] was above 50 µM.

In assay [1], `CC(C)N1C2CCC1CN(c1ccc(-c3cnc4cc(-c5ccc(S(C)(=O)=O)cc5)n(C)c4c3)cc1)C2` [Example 26] showed an IC50 of 0.094 µM.
